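Following 48 hours of exposure in 96-well plates, responses at five concentrations were used to interpolate endpoints linearly. TGI denotes the concentration required for complete inhibition of growth.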 Some results are limits rather than exact numbers.

Test systems include RXF 393 renal; HCC-2998 colon; M14 melanoma; MALME-3M melanoma; PC-3 prostate; T-47D breast; SK-MEL-5 melanoma; SF-539 CNS; MDA-MB-231 breast; HCT-116 colon.
Test in all cases: NCI-60 cell line screen, 48 h

For the compound `CC(=O)OC12CC(C(F)(F)F)(C(F)(F)F)OC1(OC(C)=O)CC(C(F)(F)F)(C(F)(F)F)O2` (stereo not given), the TGI with RXF 393 renal is 77.7 µM; with HCC-2998 colon, above 100 µM; in the assay with M14 melanoma it was above 100 µM; with MALME-3M melanoma, above 100 µM; in the assay on PC-3 prostate, above 100 µM; in the assay on T-47D breast, 8.56 µM. Besides, the TGI was determined as 5.81 µM in the assay on SK-MEL-5 melanoma, 8.48 µM with SF-539 CNS, 53.2 µM in the assay with MDA-MB-231 breast and 29.7 µM in the assay on HCT-116 colon.
For `N#CCCN(CCC#N)c1ccc(/C=C2\SC(=S)NC2=O)cc1`, the TGI in the assay on RXF 393 renal, in the assay on HCC-2998 colon, with M14 melanoma, with MALME-3M melanoma, with PC-3 prostate and with T-47D breast was above 100 µM each time. The TGI in the assay on SK-MEL-5 melanoma, with SF-539 CNS, in the assay with MDA-MB-231 breast and with HCT-116 colon was above 100 µM each time.
Consider `O=C1CCCCC/C1=C\c1cccc([N+](=O)[O-])c1`, for which the TGI in the assay with RXF 393 renal is 93.1 µM; with HCC-2998 colon it was 44 µM; with M14 melanoma, above 100 µM; in the assay on MALME-3M melanoma, 72.4 µM; in the assay with PC-3 prostate it was above 100 µM; with T-47D breast, above 100 µM. Further, the TGI with SK-MEL-5 melanoma was found to be 40.4 µM; in the assay on SF-539 CNS, 48.7 µM; in the assay with MDA-MB-231 breast, 56.4 µM; with HCT-116 colon, 53 µM.
As for `O=C1C(C(c2ccc([N+](=O)[O-])cc2)N2CCOCC2)=C(O)C(c2ccccc2)N1c1ccccc1` (stereo not given), the TGI in the assay on RXF 393 renal, with HCC-2998 colon, with M14 melanoma, in the assay with MALME-3M melanoma, in the assay on PC-3 prostate and with T-47D breast was above 10 µM each time. Moreover, the TGI with SK-MEL-5 melanoma, in the assay on SF-539 CNS, in the assay with MDA-MB-231 breast and with HCT-116 colon was above 10 µM each time.
On to `C/C(=N/NC(=S)Nc1cccc(Cl)c1)c1ccccn1`, for which the TGI was 9.76 µM in the assay on RXF 393 renal; 17.5 µM in the assay on HCC-2998 colon; 3.82 µM in the assay on M14 melanoma; 10 µM with MALME-3M melanoma; 15.1 µM in the assay on PC-3 prostate; 1.05 µM in the assay with T-47D breast. The TGI in the assay on SK-MEL-5 melanoma is 4 µM; in the assay with SF-539 CNS, 3.35 µM; in the assay on MDA-MB-231 breast it was 10.3 µM; in the assay on HCT-116 colon, 12.2 µM.
Take `Nc1ncnc2c1ncn2C1OC(CO)C(O)C1NS(=O)(=O)c1ccccc1` (stereo not given): the TGI with RXF 393 renal, in the assay with HCC-2998 colon, in the assay with M14 melanoma, in the assay on MALME-3M melanoma, in the assay on PC-3 prostate and in the assay with T-47D breast was above 100 µM each time. Moreover, the TGI in the assay on SK-MEL-5 melanoma, with SF-539 CNS, in the assay on MDA-MB-231 breast and with HCT-116 colon was above 100 µM each time.
For the compound `CCCCOc1c(C(=O)O)cc(Br)cc1C(=O)O`, the TGI in the assay with RXF 393 renal, in the assay on HCC-2998 colon, with M14 melanoma, in the assay on MALME-3M melanoma, in the assay with PC-3 prostate and in the assay on T-47D breast was above 100 µM each time. Further, the TGI in the assay on SK-MEL-5 melanoma, in the assay on SF-539 CNS, in the assay with MDA-MB-231 breast and in the assay with HCT-116 colon was above 100 µM in each case.
Turning to `CCn1c(-c2ccc(OC)cc2)nc2c1C(=O)c1ccccc1C2=O`, the TGI with RXF 393 renal, in the assay on HCC-2998 colon, in the assay on M14 melanoma, in the assay with MALME-3M melanoma, with PC-3 prostate and in the assay on T-47D breast was above 100 µM in each case. The TGI in the assay on SK-MEL-5 melanoma, in the assay with SF-539 CNS, with MDA-MB-231 breast and in the assay on HCT-116 colon was above 100 µM each time.
With `N#C/C(=C/n1c(=S)[nH]c2ccccc21)C(N)=O`, the TGI in the assay on RXF 393 renal, in the assay on HCC-2998 colon, in the assay on M14 melanoma, with MALME-3M melanoma, in the assay on PC-3 prostate and in the assay with T-47D breast was above 100 µM in each case. For the same compound, the TGI in the assay with SK-MEL-5 melanoma, in the assay with SF-539 CNS, with MDA-MB-231 breast and in the assay on HCT-116 colon was above 100 µM each time.
`CC1(C)Oc2ccc3c(=O)cc(-c4cccs4)oc3c2C1C(=O)O` (stereo not given): the TGI in the assay on RXF 393 renal, with HCC-2998 colon, in the assay with M14 melanoma, with MALME-3M melanoma, with PC-3 prostate and in the assay with T-47D breast was above 100 µM in each case. For the same compound, the TGI with SK-MEL-5 melanoma, in the assay on SF-539 CNS, with MDA-MB-231 breast and in the assay on HCT-116 colon was above 100 µM in each case.
For the compound `c1ccc(C(c2cccc3c2ccc2ccccc23)C(c2ccccc2)c2cccc3c2ccc2ccccc23)cc1` (stereo not given), the TGI with RXF 393 renal, in the assay with HCC-2998 colon, in the assay with M14 melanoma, with MALME-3M melanoma, in the assay with PC-3 prostate and in the assay with T-47D breast was above 100 µM throughout. The TGI in the assay on SK-MEL-5 melanoma, with SF-539 CNS, in the assay on MDA-MB-231 breast and with HCT-116 colon was above 100 µM each time.

The record behind these values is PubChem BioAssay (NCI).
